Measurements reported in PubChem BioAssay (NCI).
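Cultured in 96-well plates, cells were exposed to test compound for 48 hours across five concentrations. At the TGI there is no net growth.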

Key:
Test in all cases: NCI tumour cell line growth inhibition, 48 h
DMS 114 small cell lung = test system: DMS 114 small cell lung
HOP-62 NSCLC = test system: HOP-62 NSCLC
UACC-62 melanoma = test system: UACC-62 melanoma
SNB-78 CNS = test system: SNB-78 CNS
UO-31 renal = test system: UO-31 renal
COLO 205 colon = test system: COLO 205 colon
CCRF-CEM leukemia = test system: CCRF-CEM leukemia
IGROV1 ovarian = test system: IGROV1 ovarian
OVCAR-8 ovarian = test system: OVCAR-8 ovarian
SF-295 CNS = test system: SF-295 CNS
OVCAR-5 ovarian = test system: OVCAR-5 ovarian
DMS 273 small cell lung = test system: DMS 273 small cell lung
SK-MEL-5 melanoma = test system: SK-MEL-5 melanoma
DLD-1 colon = test system: DLD-1 colon
RXF-631 renal = test system: RXF-631 renal
TK-10 renal = test system: TK-10 renal
UACC-257 melanoma = test system: UACC-257 melanoma
KM20L2 colon = test system: KM20L2 colon
SN12C renal = test system: SN12C renal
A549 NSCLC = test system: A549 NSCLC
HCC-2998 colon = test system: HCC-2998 colon
HCT-15 colon = test system: HCT-15 colon
SK-OV-3 ovarian = test system: SK-OV-3 ovarian
K-562 leukemia = test system: K-562 leukemia
LOX IMVI melanoma = test system: LOX IMVI melanoma
MALME-3M melanoma = test system: MALME-3M melanoma
NCI-H23 lung = test system: NCI-H23 lung
OVCAR-3 ovarian = test system: OVCAR-3 ovarian
KM12 colon = test system: KM12 colon
HL-60(TB) leukemia = test system: HL-60(TB) leukemia
786-0 renal = test system: 786-0 renal
RPMI-8226 leukemia = test system: RPMI-8226 leukemia
SF-268 CNS = test system: SF-268 CNS
ACHN renal = test system: ACHN renal
U251 CNS = test system: U251 CNS
HOP-92 NSCLC = test system: HOP-92 NSCLC
SNB-75 CNS = test system: SNB-75 CNS
CAKI-1 renal = test system: CAKI-1 renal
SF-539 CNS = test system: SF-539 CNS
SNB-19 CNS = test system: SNB-19 CNS
HOP-18 NSCLC = test system: HOP-18 NSCLC
NCI-H522 lung = test system: NCI-H522 lung
SK-MEL-28 melanoma = test system: SK-MEL-28 melanoma
MOLT-4 leukemia = test system: MOLT-4 leukemia
SK-MEL-2 melanoma = test system: SK-MEL-2 melanoma
SW-620 colon = test system: SW-620 colon
NCI-H226 lung = test system: NCI-H226 lung
EKVX NSCLC = test system: EKVX NSCLC
RXF 393 renal = test system: RXF 393 renal
HT29 colon = test system: HT29 colon
A498 renal = test system: A498 renal
NCI-H460 lung = test system: NCI-H460 lung

Measured: TGI

O=C(/C=C/c1ccc(OCCCCCCCCCCOc2ccc(/C=C/C(=O)c3ccc(Cl)cc3)cc2)cc1)c1ccc(Cl)cc1
> 100 µM: all assays above
